Source: ChEMBL document CHEMBL1137221, “Validation of model of cytochrome P450 2D6: an in silico tool for predicting metabolism and inhibition” (J Med Chem, 2004)

What follows are compounds tested against T1, Cytochrome P450 2D6 (Homo sapiens, UniProt P10635) (assay: Binding affinity for cytochrome P450 2D6).
Format: ADME

T1 sequence (P10635 whole entry): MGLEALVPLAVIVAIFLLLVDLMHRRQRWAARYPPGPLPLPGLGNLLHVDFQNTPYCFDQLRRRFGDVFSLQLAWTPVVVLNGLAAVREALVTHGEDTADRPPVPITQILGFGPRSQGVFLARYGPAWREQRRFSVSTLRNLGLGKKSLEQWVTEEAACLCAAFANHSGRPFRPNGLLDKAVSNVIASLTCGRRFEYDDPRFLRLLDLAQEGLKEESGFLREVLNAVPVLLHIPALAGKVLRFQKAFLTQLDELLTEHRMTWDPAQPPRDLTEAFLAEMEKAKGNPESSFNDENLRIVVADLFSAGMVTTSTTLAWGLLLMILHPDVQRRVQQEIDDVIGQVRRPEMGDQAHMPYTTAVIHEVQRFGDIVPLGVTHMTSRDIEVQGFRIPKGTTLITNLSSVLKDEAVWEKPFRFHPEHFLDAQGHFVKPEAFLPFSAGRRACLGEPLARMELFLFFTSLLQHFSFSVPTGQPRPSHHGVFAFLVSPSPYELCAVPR

SMILES | Ki [µM]
C=C[C@H]1C[N@@]2CC[C@H]1C[C@@H]2[C@@H](O)c1ccnc2ccccc12 [CINCHONINE] | 21

Each compound was assayed against T1, Cytochrome P450 2D6 (assay: Inhibitory concentration against cytochrome P450 2D6).

SMILES | IC50 [µM]
NS(=O)(=O)OCCCCCCCOS(N)(=O)=O | 699
O=C1CC2(CCCCC2)C(=O)C1CC(Cl)CCl (configuration not stated) | 310
O=C(O)c1ccc(CNCc2ccccc2)cc1 | 570
NCCCc1c(-c2ccccc2)nc(N)[nH]c1=O | 234
O=C(Cn1ccnc1[N+](=O)[O-])N(CCO)CCO | 1020
COC12[C@H](COC(N)=O)C3=C(C(O)=C(C)C(=N)C3=O)N1C[C@H]1[C@@H]2N1C (some centres not stated) | 94.3
COc1ccc(S(=O)(=O)N/N=C/C(=O)O)cc1 | 288
Clc1ccc(Cl)c(SCCCN2CCNCC2)c1 | 2.1
CN(C)CCOc1ccc(/C(=C/c2ccccc2)c2ccccc2)cc1 | 7.2
CC(C)NC(=O)OCc1c(COC(=O)NC(C)C)c(-c2ccc(Cl)c(Cl)c2)n2c1CCC2 | 11
O=CC(NC(=O)N(CCCl)N=O)C(O)C(O)C(O)CO (configuration not stated) | 2020
NCC(O)CSCc1ccc(Cl)cc1 (configuration not stated) | 8
COc1ccc2c(c1[N+](=O)[O-])CC[C@@H]1[C@@H]2CC[C@]2(C)C(=O)CC[C@@H]12 | 196
COC(=O)C12OC[C@]34[C@H]([C@@H](O)[C@@H]1O)[C@@]1(C)CC(=O)C(O)=C(C)[C@@H]1C[C@H]3OC(=O)[C@H](OC(=O)/C=C(\C)C(C)C)[C@@H]24 (single isomer, unassigned) [BRUCEANTIN] | 514
CC(=O)N(C)c1ccc(Nc2cc(C)nc3ccc4[nH]cnc4c23)cc1 [ACODAZOLE] | 18.1
CN(C)CCN1C(=O)c2cccc3cc(N)cc(c23)C1=O [AMONAFIDE] | 39.6
O=C(O)CCCc1ccc(N(CCCl)CCCl)cc1 [CHLORAMBUCIL] | 65.1
C=C[C@H]1C[N@@]2CC[C@H]1C[C@@H]2[C@@H](O)c1ccnc2ccccc12 [CINCHONINE] | 1.8
Nc1ccc2c(c1)CN1C(=O)c3ccccc3C1=N2 [DANIQUIDONE] | 48
CCN(CC)CCNc1ccc(CO)c2sc3ccccc3c(=O)c12 [HYCANTHONE] | 1.5
CNCCC=C1c2ccccc2CCc2ccccc21 [NORTRIPTYLINE] | 2.6
